Tests used:
essential genes [1] = experiment: AsCas12a tiling library pooled dropout (viability) screens; assay type: cell-based, human; design: AUC after selecting top half of guides by Seq-DeepCpf1 score: unit not given beside the values; settings: for guides targeting a TTTT site observed to be active / precision recall area under curve (AUC): A375 viability data; for guides targeting a TTTT site observed to be active: activity cutoff 5th percentile of guides targeting control genes; for precision recall area under curve (AUC): essential gene guides true positives, control gene guides false positives, TTTT PAMs excluded for AsCas12a; for AUC after selecting top half of guides by Seq-DeepCpf1 score: essential and non-essential guides of the tiling screens; for guides active, all guides / guides active, quartile with the highest Seq-DeepCpf1 prediction scores: guides targeting essential genes, cutoff 5th percentile of cell surface control guides
Description: The AsCas12a library was cloned into a modified version of lentiGuide, pRDA_052, which expresses the guide from a U6 promoter and confers puromycin resistance.

essential genes [2] = experiment: Mismatched guide library off-target dropout screen in A375 cells; settings: cutoff 5th percentile of controls
Protocol: Cell lines stably expressing Cas12a were transduced with guides cloned into the pRDA_052 vector in two biological replicates at a low MOI (˜0.5). Transductions were performed with enough cells to achieve a representation of at least 500 cells per guide per replicate, taking into account a 30-50% transduction efficiency. Throughout the screen, cells were split at a density to maintain a representation of at least 500 cells per guide, and cell counts were taken at each passage to monitor growth. Puromycin selection was added 2 days post-transduction and was maintained for 5-7 days. After puromycin selection was complete, each replicate was divided into untreated (i.e. no drug/dropout arms) and small molecule treatment arms, each at a representation of at least 500 cells per guide.
In order to assess the off-target tolerance of AsCas12a, a library of guides intentionally mismatched to their target was constructed. […] Screens were performed in duplicate in A375 cells with dropout, vemurafenib, and 6-thioguanine arms in cells stably expressing 2×NLS-Cas12a and enCas12a.

[3] = test system: target sites preceded by a PAM; experiment: Determination of PAM (plasmid depletion in E. coli); assay type: cell-based; settings: N is A/C/G or T
Description: Determination of PAM can be ensured as follows This experiment closely parallels similar work in E. coli for the heterologous expression of StCas9 (Sapranauskas, R. et al. Nucleic Acids Res 39, 9275-9282 (2011)). Applicants introduce a plasmid containing both a PAM and a resistance gene into the heterologous E. coli, and then plate on the corresponding antibiotic. If there is DNA cleavage of the plasmid, Applicants observe no viable colonies.
In further detail, the assay is as follows for a DNA target. Two E. coli strains are used in this assay. One carries a plasmid that encodes the endogenous effector protein locus from the bacterial strain. The other strain carries an empty plasmid (e.g. pACYC184, control strain). All possible 7 or 8 bp PAM sequences are presented on an antibiotic resistance plasmid (pUC19 with ampicillin resistance gene). The PAM is located next to the sequence of proto-spacer 1 (the DNA target to the first spacer in the endogenous effector protein locus). Two PAM libraries were cloned. One has an 8 random bp 5′ of the proto-spacer (e.g., total of 65536 different PAM sequences=complexity). The other library has 7 random bp 3′ of the proto-spacer (e.g. total complexity is 16384 different PAMs). Both libraries were cloned to have in average 500 plasmids per possible PAM. […]

Factor VII = settings: LNP siRNA systems containing the lipid; hepatocytes in vivo; cited from earlier work
dystrophin = settings: 48 weeks; cited from earlier work
[4] = test system: target sites with TYCV/CCCC and TATV PAMs; settings: in vitro and in human cells; cited from earlier work
[5] = test system: genome-wide off-target sites; settings: genome-wide assessment of off-target activity; cited from earlier work
essential genes [6] = experiment: PAM identification by analysis of essential genes in a dropout screen; assay type: cell-based; settings: cell lines A375, MelJuSo, A549, OVCAR8, and 7860
CD47, CD63, and B2M = experiment: Triple knockout with Cas12a, flow cytometry of cell surface markers in A375 cells; assay type: cell-based, human; settings: 6 multiplexed arrays, three timepoints, irrespective of guide position
Protocol: A375 cells stably expressing enCas12a were transduced with 6 triple knockout arrays, 3 single knockout constructs, and one empty control vector. Two days after transduction, cells were selected with puromycin ([…]), and passaged on puromycin for 7 days. Cells were visualized by flow cytometry on the BDAccuri C6 Sampler system 9, 18, and 25 days post infection. […] Flow cytometry data were analyzed using FlowJo (v10). […] Zero, single, double, and triple knockout populations were quantified using boolean gating in FlowJo.
Using these guides, 6 multiplexed arrays with all possible guide orientations were generated (FIG. 21A-21B). Three single guide constructs, and one empty vector control, and used flow cytometry were also included (FIGS. 31A-31E) to quantify the fraction of cells that were edited or not for all three markers. […] In this internally-controlled assay, EGFP labels cells without enCas12a (and thus no dsDNA breaks) and the fraction of enCas12a-positive, EGFP-negative cells over time was measured by flow cytometry (FIG. 33A). […]

MAPK1-MAPK3 = experiment: Synthetic lethal (SynLet) multiplexed guide pair screen; assay type: cell-based, human; settings: MAPK1-MAPK3, OVCAR8 cells
Description: For a construct with the ordered elements guide1, DR, guide2, it can be said that the
[formula] where m and β are a fitted slope and intercept. The residual then is the difference between the observed and expected LFCs. Filtering SynLet Libraries
To assess the effectiveness of multiplexing across numerous endogenous genes, a library targeting synthetically lethal (SynLet) gene pairs was designed. […] For As Cas12a, a second guide needed only 43 additional nucleotides. […] Furthermore, the proximity of guides in the enCas12a construct made sequencing and downstream analyses easier.
For each gene in a given pair, up to 20 guides were picked at random, 15 and 5 of which targeted TTTV and TTTT PAMs respectively (FIG. 15A). Pairs were screened in both orientations and the top three direct repeats were used. Thus, each gene pair was assessed with up to 2,400 unique constructs (20 guides×20 guides×2 orientations×3 DRs). […]
To quantitate synergies between guide pairs, an expected phenotype was first calculated by determining the average LFC of each targeting guide when it was coupled with controls (FIG. 29A), and then summing the average LFC for the two guides. […] Finally, the residual from the fit line for all constructs were calculated, where a negative residual indicates a synthetic lethal pair. […]

**Q.** For “enCas12a: enCas12a lentiviral expression construct; AsCas12a comprising E174R/S542R/K548R mutations”, which “guides targeting a TTTT site observed to be active” value (essential genes [1]) is on record?
**A.** 57%

**Q.** And the “precision recall area under curve (AUC)” value (essential genes [1])?
**A.** 0.96

**Q.** And the “EEF2 guides targeting TTTN active” value (essential genes [1]; EEF2 guides of the tiling library)?
**A.** 62%

**Q.** And the “non-canonical tier 1 guides active, quartile with highest Seq-DeepCpf1 scores” value (essential genes [1]; TTTC substituted in silico for the actual PAM)?
**A.** 93%

**Q.** And the “AUC after selecting top half of guides by Seq-DeepCpf1 score” value (essential genes [1])?
**A.** 0.97

**Q.** And the “guides active, all guides” value (essential genes [1])?
**A.** 80%

**Q.** And the “guides active, quartile with the highest Seq-DeepCpf1 prediction scores” value (essential genes [1])?
**A.** 94%

**Q.** What about the “EEF2 guides targeting the other tier 1 PAMs active” value (essential genes [1]; non-canonical (non-TTTN) PAMs) of the same molecule?
**A.** 68%

**Q.** And the “double mismatch guides active” value (essential genes [2])?
**A.** 16%

**Q.** What about the “perfect match guides scoring as active” value (essential genes [2]) of the same molecule?
**A.** 91%

**Q.** What about the “single mismatch guides active” value (essential genes [2]) of the same molecule?
**A.** 54%

**Q.** For AsCpf1: Acidaminococcus sp. BV3L6 Cpf1, which “PAM preceding the target sites that can be cleaved” value [3] is on record?
**A.** TTTV

**Q.** For `CCCCC/C=C\C/C=C\CCCCCCCCOCC(CN(C)C)OCCCCCCCC/C=C\C/C=C\CCCCC` (stereo not shown) [DLinDMA, 1,2-dilinoleyloxy-3-N,N-dimethylaminopropane], which “potency order of gene silencing” value (Factor VII) is on record?
**A.** DLinKC2-DMA>DLinKDMA>DLinDMA>>DLinDAP

**Q.** For `CCCCC/C=C\C/C=C\CCCCCCCCC1(CCCCCCCC/C=C\C/C=C\CCCCC)OCC(CCN(C)C)O1` (stereo not shown) [DLinKC2-DMA, 1,2-dilinoleyl-4-(2-dimethylaminoethyl)-[1,3]-dioxolane], which “potency order of gene silencing” value (Factor VII) is on record?
**A.** DLinKC2-DMA>DLinKDMA>DLinDMA>>DLinDAP

**Q.** For “1,2-dilinoleyloxy-keto-N,N-dimethyl-3-aminopropane [DLinKDMA]”, which “potency order of gene silencing” value (Factor VII) is on record?
**A.** DLinKC2-DMA>DLinKDMA>DLinDMA>>DLinDAP

**Q.** For “2×NLS-Cas12a: 2×-NLS-Cas12a lentiviral expression construct”, which “guides targeting a TTTT site observed to be active” value (essential genes [1]) is on record?
**A.** 7%

**Q.** And the “precision recall area under curve (AUC)” value (essential genes [1])?
**A.** 0.84

**Q.** What about the “AUC after selecting top half of guides by Seq-DeepCpf1 score” value (essential genes [1]) of the same molecule?
**A.** 0.94

**Q.** What about the “guides active, all guides” value (essential genes [1]) of the same molecule?
**A.** 47%

**Q.** What about the “guides active, quartile with the highest Seq-DeepCpf1 prediction scores” value (essential genes [1]) of the same molecule?
**A.** 92%

**Q.** What about the “double mismatch guides active” value (essential genes [2]) of the same molecule?
**A.** 9%

**Q.** What about the “perfect match guides scoring as active” value (essential genes [2]) of the same molecule?
**A.** 94%

**Q.** What about the “single mismatch guides active” value (essential genes [2]) of the same molecule?
**A.** 28%

**Q.** For Eteplirsen, which “dystrophin positive fibers compared to baseline (average)” value (dystrophin) is on record?
**A.** 47%

**Q.** For `CCCCC/C=C\C/C=C\CCCCCCCC(=O)OCC(CN(C)C)OC(=O)CCCCCCC/C=C\C/C=C\CCCCC` (stereo not shown) [DLinDAP, 1,2-dilineoyl-3-dimethylammonium-propane], which “potency order of gene silencing” value (Factor VII) is on record?
**A.** DLinKC2-DMA>DLinKDMA>DLinDMA>>DLinDAP

**Q.** Which “PAMs of target sites that can be cleaved” value [4] does the source give for “S542R/K607R: variant of AsCpf1 engineered with the mutations S542R/K607R” here?
**A.** TYCV/CCCC

**Q.** And the DNA targeting specificity [5]?
**A.** retain a high level of DNA targeting specificity

**Q.** Which results are given for “AsCas12a: Cas12a (Cpf1) effector used for the screens, here in multiplexed guide arrays”?
**A.** protospacer adjacent motif (PAM) (essential genes [6]): TTTV; cells showing editing at all three loci (CD47, CD63, and B2M): approximately 70%; guide pairs scored as synthetic lethal (MAPK1-MAPK3): 98%

**Q.** Which “PAMs of target sites that can be cleaved” value [4] does the source give for “S542R/K548V/N552R: variant of AsCpf1 engineered with the mutations S542R/K548V/N552R” here?
**A.** TATV

**Q.** What about the DNA targeting specificity [5] of the same molecule?
**A.** retain a high level of DNA targeting specificity

**Q.** For “1×NLS-Cas12a: lx-NLS-Cas12a lentiviral expression construct; Addgene 84750 [reference compound]”, which “guides targeting a TTTT site observed to be active” value (essential genes [1]) is on record?
**A.** 7%

**Q.** And the “precision recall area under curve (AUC)” value (essential genes [1])?
**A.** 0.61

From patent US12264323B2, “CRISPR CPF1 direct repeat variants” (THE BROAD INSTITUTE, INC., priority 2018, dated 2025)
